The values that follow come from publication PMC11339798, “Dual inhibitors of Pseudomonas aeruginosa virulence factors LecA and LasB” (Chemical Science, 2024).

One data set can be described thus: Kinetic solubility. Type of data set: physicochemical. As to conditions: aqueous buffer, kinetic from dmso stock; 10 mm PBS with 2% DMSO at 37 °C.
Data set [1] addresses T1, LecA (Pseudomonas aeruginosa, UniProt Q05097).
T1 construct: made in house; host or cells: E. coli (plasmid pET25-pail)
Kind of data set: Surface plasmon resonance direct LecA binding assay (immobilized LecA). On the set-up: species or system P. aeruginosa. An excerpt: Therefore, we measured the LecA affinity of thiol derivatives 17, 18, 24 and 25 and disulfides 26a, 26b and 27 using surface plasmon resonance (SPR) with LecA covalently immobilized on a sensor chip via amide coupling (Fig. 5 and Table 1). […] Thiols 17, 18, 24 and 25 reached equilibrium binding within 60 s of interaction with immobilized LecA, followed by their dissociation with moderate off-rates. […] Due to the very small off-rates for 26a, 26b and 27, these values have been calculated based on the response at […] of the injected compound and monitoring their dissociation for 30 min (Fig. S2 ^†). The observed very tight binding to immobilized LecA required optimization of the protein surface regeneration procedure. Effective conditions were identified as one injection of 50 mm isopropyl β-D-thiogalactoside in the running buffer, followed by one injection of 20 mm EDTA disodium salt in water. The regenerated chip surface was controlled using an injection of 1 to ensure that the activity of LecA was maintained.
Surface plasmon resonance direct LecA binding assay
SPR experiments were performed on a Reichert 2-channel SPR SR7500DC (Reichert Technologies Life Sciences, Buffalo, NY, USA) at 25 °C. For LecA immobilization, the surface of a HC1000M sensor chip (XanTec bioanalytics GmbH, Düsseldorf, Germany) was preequilibrated with borate buffer (1 M NaCl, 0.1 M sodium borate pH 9.0), followed by activation of the polycarboxylate hydrogel with 0.2 M N-hydroxysuccinimide (NHS) and 0.4 M 1-ethyl-3-(3-dimethylaminopropyl)carbodiimide hydrochloride (EDC‧HCl) in MilliQ water in both channels for 240 s (flow rate 10 μL/min) until the binding response reached 1200 RU.
Then, LecA (100 μg/mL) in 10 mM sodium acetate pH 3.6 was injected on the activated chip surface of one channel (injection time 420 s, flow rate 10 μL/min) and 6000 RU of LecA were immobilized. Unreacted NHS esters in both channels were blocked with 1 M ethanolamine hydrochloride in MilliQ water pH 8.5 (injection time 360 s, flow rate 10 μL/min).
Test compound stock solutions were prepared in DMSO (20 mM stocks for monovalent LecA inhibitors, 20 µM stocks for divalent LecA inhibitors) and were subsequently diluted in 10 mM phosphate buffer (pH 7.4, 2.7 mM KCl, 137 mM NaCl, 100 μM CaCl2) to obtain solutions with […]
Monovalent inhibitors 17, 18, 24 and 25 were injected for 120 s (flow rate 50 μL/min) at concentrations ranging from 0.39–100 µM. Divalent inhibitors 26a, 26b and 27 were injected for 120 s (flow rate 50 μL/min) at concentrations 50–350 nM. The chip surface was regenerated after each inhibitor injection by one injection of 50 mM IPTG in running buffer (10 mM phosphate buffer, pH 7.4, 2.7 mM KCl, 137 mM NaCl, 100 μM CaCl2, 2% DMSO) followed by one injection 20 mM EDTA disodium salt in MilliQ water, and then followed by three injections of the running buffer (injection time 120 s, flow rate 50 μL/min). 100 µM pNP-Gal (1) in running buffer was injected before each analyte to monitor and ensure chip regeneration and […]
Affinity/equilibrium analysis was performed for 1 on the same chip. A stock solution of 1 (10 mM in PBS/CaCl2 buffer) was prepared, then diluted to the required concentrations in running buffer and injected at 1.56–400 µM (injection time 60 s, flow rate 50 μL/min) without regeneration steps. Data analysis was performed using TraceDrawer software (Ridgeview Instruments) using a 1:1 binding model to fit the experimental data. Spikes at the end of the injections were removed in TraceDrawer during the data analysis.
In general terms: SPR reads the build-up and loss of mass on a sensor chip optically.

Data set [2] concerns the target T1, LecA. Kind of data set: Competitive binding assay for LecA based on fluorescence polarization. Further details: species or system P. aeruginosa. The method, then:
The four thiols 17, 18, 24 and 25 as well as three disulfides 26a, 26b and 27 were then evaluated for their activity against LecA using a competitive binding assay based on fluorescence polarization (Fig. 4B). […]
Expression and purification of LasB and LecA
LecA was expressed recombinantly using E. coli pET25-pail, whereas LasB was isolated from P. aeruginosa PA14 culture supernatant as described previously. 1,2
LecA labeling with fluorescein was performed in analogy to Sommer et al. 3 and Beshr et al.4 To this end fluorescein isothiocyanate (FITC) was freshly dissolved in carbonate-bicarbonate buffer with pH of 9.3 at a concentration of 3 mg mL-1. Subsequently, 66 µL of this FITC solution was combined with 1.4 mL of LecA at a concentration of 60 µM in carbonate-bicarbonate buffer, pH 9.3. The resulting mixture was then incubated at 25 °C with shaking at 500 rpm for 1 hour. Then, extensive washing with PBS/Ca2+ in a 5 kDa molecular weight cutoff centrifugal concentrator was performed to remove excess dye and buffer the labelled protein. […]
Competitive binding assay for LecA
The procedure for the fluorescence polarization-based competitive binding assay for LecA was performed as reported by Joachim et al. with modifications. 1 The assay was performed in TBS/Ca2+ buffer (20 mM Tris, 137 mM NaCl, 2.6 mM KCl at pH 7.4 supplemented with 1 mM CaCl 2 and contained 5% DMSO). The final protein concentration in the assay was 5 µM for LecA. Fluorescence intensities were recorded on a PheraStar FS plate reader (BMG Labtech GmbH, Germany) and polarization was calculated using MARS Data Analysis (BMG Labtech).
IC50 values were obtained from a four-parameter curve-fitting procedure. Averages and standard deviations were calculated from at least three independent experiments of technical
Background: In fluorescence polarisation assays a small probe gives low polarisation when free and higher when bound to something large.

T1 sequence (Q05097 whole entry): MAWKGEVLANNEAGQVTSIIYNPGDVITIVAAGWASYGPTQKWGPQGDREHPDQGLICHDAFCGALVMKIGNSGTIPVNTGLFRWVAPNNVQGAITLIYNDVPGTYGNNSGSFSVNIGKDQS

Take `CC(C)CC(SSC(CC(C)C)C(=O)Nc1ccc(S[C@@H]2O[C@H](CO)[C@H](O)[C@H](O)[C@H]2O)cc1)C(=O)Nc1ccc(S[C@@H]2O[C@H](CO)[C@H](O)[C@H](O)[C@H]2O)cc1` (some centres unmarked) [Compound 27]: in the data set “Kinetic solubility”, the kinetic solubility was > 600 µM. On LecA [1], this molecule gave a Kd of 4.5 ± 0.4 nM. Besides, on LecA [1] (SPR, immobilized LecA), the k a is listed as 5.2 ± 0.6 ×10^4 M^−1 s^−1 and the k d is listed as 2.2 ± 0.3 ×10^−4 s^−1. This molecule gave an IC50 at LecA [2] of 5700 nM.

As a reminder, the kinetic solubility is solubility judged after dilution from a stock solution rather than from solid. As a reminder, the Kd is a measure of binding affinity in units of concentration. Lower therefore signals tighter binding. One may read the IC50 as the concentration at which inhibition is half-maximal.
